According to patent US8563559B2 (Rigel Pharmaceuticals, Inc., priority 2006, dated 2013):

molecular target: T1, Axl (Homo sapiens, UniProt P30530); assay: Phospho-AKT in-cell Western assay (inhibition of Axl activity); type: cell-based; details: Table 1, formula (Ia); Hela cells, Axl antibody cross-linking stimulation, phospho-Akt chemiluminescence normalized to relative cell number
T1 construct: endogenous in cells; host or cells: HeLa
T1 sequence (P30530 26-894): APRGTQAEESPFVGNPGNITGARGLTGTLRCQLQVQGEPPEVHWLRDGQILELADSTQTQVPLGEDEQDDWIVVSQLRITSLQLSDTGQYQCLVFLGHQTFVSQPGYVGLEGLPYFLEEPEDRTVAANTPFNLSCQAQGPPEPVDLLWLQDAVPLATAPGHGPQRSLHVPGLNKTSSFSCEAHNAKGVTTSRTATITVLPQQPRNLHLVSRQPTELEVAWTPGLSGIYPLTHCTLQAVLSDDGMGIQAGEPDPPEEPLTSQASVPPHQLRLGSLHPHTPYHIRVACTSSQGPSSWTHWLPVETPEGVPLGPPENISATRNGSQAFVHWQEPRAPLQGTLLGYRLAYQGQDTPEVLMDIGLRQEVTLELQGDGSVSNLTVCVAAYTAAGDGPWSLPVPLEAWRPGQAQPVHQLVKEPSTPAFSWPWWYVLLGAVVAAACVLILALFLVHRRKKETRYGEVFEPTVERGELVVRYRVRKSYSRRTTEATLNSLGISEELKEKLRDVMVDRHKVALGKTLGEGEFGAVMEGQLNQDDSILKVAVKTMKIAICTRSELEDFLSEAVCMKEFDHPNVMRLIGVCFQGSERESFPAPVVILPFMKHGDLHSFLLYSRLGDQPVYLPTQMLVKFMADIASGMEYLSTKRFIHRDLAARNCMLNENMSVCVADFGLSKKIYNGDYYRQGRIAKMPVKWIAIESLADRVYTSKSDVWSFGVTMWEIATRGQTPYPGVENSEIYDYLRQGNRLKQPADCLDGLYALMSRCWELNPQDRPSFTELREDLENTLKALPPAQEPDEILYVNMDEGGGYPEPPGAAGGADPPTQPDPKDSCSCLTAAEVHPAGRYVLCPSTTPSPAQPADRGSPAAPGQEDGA
Outline: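 HeLa cells were starved 24 h in 0.5% FCS with Axl/Fc 500 ng/mL, pre-treated with compound for 1 h at 37 °C, then stimulated 5 min by anti-Axl antibody cross-linking. Fixed cells were probed for phospho-AKT with an HRP-linked in-cell Western and read by chemiluminescence.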

Row | Compound | IC50
1 | CCN(CC)C1CCN(c2ccc(Nc3ncc(C(F)(F)F)c(N[C@@]4(C)[C@@H](C(=O)NC)C[C@H]5C[C@@H]4C5(C)C)n3)cc2F)CC1 [Compound 52, (1R,2R,3S,5R)-2-(5-trifluoromethyl-2-(3-fluoro-4-(4-(diethylamino)piperidin-1-yl)phenylamino)pyrimidin-4-ylamino)-N,2,6,6-tetramethylbicyclo[3.1.1]heptane-3-carboxamide] | < 1000 nM
2 | CNC(=O)[C@H]1C[C@H]2C[C@H](C2(C)C)[C@@]1(C)Nc1nc(Nc2ccc(N3CCC(N4CCC(C)CC4)CC3)c(F)c2)ncc1Cl [Compound 54, (1R,2R,3S,5R)-2-(5-chloro-2-(3-fluoro-4-(4-(4-methylpiperidin-1-yl)piperidin-1-yl)phenylamino)pyrimidin-4-ylamino)-N,2,6,6-tetramethylbicyclo[3.1.1]heptane-3-carboxamide] | < 1000 nM
3 | CNC(=O)[C@H]1C[C@H]2C[C@H](C2(C)C)[C@@]1(C)Nc1nc(Nc2ccc(N3CCC(N4CCC(C)CC4)CC3)c(F)c2)ncc1F [Compound 55, (1R,2R,3S,5R)-2-(5-fluoro-2-(3-fluoro-4-(4-(4-methylpiperidin-1-yl)piperidin-1-yl)phenylamino)pyrimidin-4-ylamino)-N,2,6,6-tetramethylbicyclo[3.1.1]heptane-3-carboxamide] | < 1000 nM
4 | CC1(C)[C@H]2C[C@H](C(=O)NC3CC3)[C@](C)(Nc3nc(Nc4ccc(OCCN5CCCC5)cc4)ncc3Cl)[C@@H]1C2 [Compound 61, (1R,2R,3S,5R)-2-(5-chloro-2-(4-(2-(pyrrolidin-1-yl)ethoxy)phenylamino)pyrimidin-4-ylamino)-N-cyclopropyl-2,6,6-trimethylbicyclo[3.1.1]heptane-3-carboxamide] | < 1000 nM
5 | CCN(CC)C1CCN(c2ccc(Nc3ncc(Cl)c(N[C@@]4(C)[C@@H](C(=O)NC5CC5)C[C@H]5C[C@@H]4C5(C)C)n3)cc2F)CC1 [Compound 62, (1R,2R,3S,5R)-2-(5-chloro-2-(3-fluoro-4-(4-(diethylamino)piperidin-1-yl)phenylamino)pyrimidin-4-ylamino)-N-cyclopropyl-2,6,6-trimethylbicyclo[3.1.1]heptane-3-carboxamide] | < 1000 nM
6 | CC(C)NC(=O)[C@H]1C[C@H]2C[C@H](C2(C)C)[C@@]1(C)Nc1nc(Nc2ccc(OCCN3CCCC3)cc2)ncc1Cl [Compound 63, (1R,2R,3S,5R)-2-(5-chloro-2-(4-(2-(pyrrolidin-1-yl)ethoxy)phenylamino)pyrimidin-4-ylamino)-N-(1-methylethyl)-2,6,6-trimethylbicyclo[3.1.1]heptane-3-carboxamide] | < 1000 nM

same assay, conditions: Table 3, formula (Ic); Hela cells, Axl antibody cross-linking stimulation, phospho-Akt chemiluminescence normalized to relative cell number

Row | Compound | IC50
7 | CNC(=O)[C@H]1C[C@H]2C[C@H](C2(C)C)[C@@]1(C)Nc1nc(Nc2ccc3c(c2)N(CCN(C)C)CCO3)ncc1F [Compound 51, (1R,2R,3S,5R)-2-(5-fluoro-2-((3,4-dihydro-4-(2-(dimethylamino)ethyl)-2H-benzo[b][1,4]oxazin-6-yl)amino)pyrimidin-4-ylamino)-N,2,6,6-tetramethylbicyclo[3.1.1]heptane-3-carboxamide] | 1000 to 10000 nM
8 | CCN(CC)CCN1CCOc2cc(Nc3ncc(C(F)(F)F)c(N[C@@]4(C)[C@@H](C(=O)NC)C[C@H]5C[C@@H]4C5(C)C)n3)ccc21 [Compound 53, (1R,2R,3S,5R)-2-(5-trifluoromethyl-2-((3,4-dihydro-4-(2-(diethylamino)ethyl)-2H-benzo[b][1,4]oxazin-7-yl)-amino)pyrimidin-4-ylamino)-N,2,6,6-tetramethylbicyclo[3.1.1]heptane-3-carboxamide] | < 1000 nM
9 | CNC(=O)[C@H]1C[C@H]2C[C@H](C2(C)C)[C@@]1(C)Nc1nc(Nc2ccc3c(c2)OCCN3CCN2CCCCC2)ncc1Cl [Compound 56, (1R,2R,3S,5R)-2-(5-chloro-2-((3,4-dihydro-4-(2-(piperidin-1-yl)ethyl)-2H-benzo[b][1,4]oxazin-7-yl)amino)pyrimidin-4-ylamino)-N,2,6,6-tetramethylbicyclo[3.1.1]heptane-3-carboxamide] | < 1000 nM
10 | CNC(=O)[C@H]1C[C@H]2C[C@H](C2(C)C)[C@@]1(C)Nc1nc(Nc2ccc3c(c2)OCCN3CCN2CCCCC2)ncc1F [Compound 57, (1R,2R,3S,5R)-2-(5-fluoro-2-((3,4-dihydro-4-(2-(piperidin-1-yl)ethyl)-2H-benzo[b][1,4]oxazin-7-yl)amino)pyrimidin-4-ylamino)-N,2,6,6-tetramethylbicyclo[3.1.1]heptane-3-carboxamide] | < 1000 nM
11 | CNC(=O)[C@H]1C[C@H]2C[C@H](C2(C)C)[C@@]1(C)Nc1nc(Nc2ccc3c(c2)OCCN3CCN2CCOCC2)ncc1Cl [Compound 58, (1R,2R,3S,5R)-2-(5-chloro-2-((3,4-dihydro-4-(2-(morpholin-4-yl)ethyl)-2H-benzo[b][1,4]oxazin-7-yl)amino)pyrimidin-4-ylamino)-N,2,6,6-tetramethylbicyclo[3.1.1]heptane-3-carboxamide] | < 1000 nM
12 | CNC(=O)[C@H]1C[C@H]2C[C@H](C2(C)C)[C@@]1(C)Nc1nc(Nc2ccc3c(c2)OCCN3CCN2CCOCC2)ncc1F [Compound 59, (1R,2R,3S,5R)-2-(5-fluoro-2-((3,4-dihydro-4-(2-(morpholin-4-yl)ethyl)-2H-benzo[b][1,4]oxazin-7-yl)amino)pyrimidin-4-ylamino)-N,2,6,6-tetramethylbicyclo[3.1.1]heptane-3-carboxamide] | 1000 to 10000 nM
13 | CN(C)CCN1CCOc2cc(Nc3ncc(Cl)c(N[C@@]4(C)[C@@H](C(=O)NCCO)C[C@H]5C[C@@H]4C5(C)C)n3)ccc21 [Compound 60, (1R,2R,3S,5R)-2-(5-chloro-2-((3,4-dihydro-4-(2-(dimethylamino)ethyl)-2H-benzo[b][1,4]oxazin-7-yl)amino)pyrimidin-4-ylamino)-N-(2-hydroxyethyl)-2,6,6-trimethylbicyclo[3.1.1]heptane-3-carboxamide] | < 1000 nM
14 | CC(C)NC(=O)[C@H]1C[C@H]2C[C@H](C2(C)C)[C@@]1(C)Nc1nc(Nc2ccc3c(c2)OCCN3CCN(C)C)ncc1Cl [Compound 64, (1R,2R,3S,5R)-2-(5-chloro-2-((3,4-dihydro-4-(2-(dimethylamino)ethyl)-2H-benzo[b][1,4]oxazin-7-yl)amino)pyrimidin-4-ylamino)-N-(1-methylethyl)-2,6,6-trimethylbicyclo[3.1.1]heptane-3-carboxamide] | < 1000 nM
